Values of other authors, collected in patent US7572808B2, “Triazolopyridine cannabinoid receptor 1 antagonists” (Bristol-Myers Squibb Company, priority 2005, dated 2009).
Like-named read-outs stand apart in the source and are kept apart here.

Key:
[1] = chronic administration for two weeks
[2] = human subjects, 16 week trial period, Phase IIb

Structure (SMILES) | body weight [1] | body weight [2]
Cc1c(C(=O)NN2CCCCC2)nn(-c2ccc(Cl)cc2Cl)c1-c1ccc(I)cc1 [AM-251] | substantial body weight reduction | 
Cc1c(C(=O)NN2CCCCC2)nn(-c2ccc(Cl)cc2Cl)c1-c1ccc(Cl)cc1 [SR-141716] |  | dose-dependently reduced body weight
